72 molecules from BindingDB's records for doi:10.7270/Q2C53J9J (University of Pittsburgh, 2010) can be followed below.

The target in the assay is T1, Glucose-6-phosphate 1-dehydrogenase (Leuconostoc mesenteroides, UniProt P11411).
T1 sequence (P11411 whole entry): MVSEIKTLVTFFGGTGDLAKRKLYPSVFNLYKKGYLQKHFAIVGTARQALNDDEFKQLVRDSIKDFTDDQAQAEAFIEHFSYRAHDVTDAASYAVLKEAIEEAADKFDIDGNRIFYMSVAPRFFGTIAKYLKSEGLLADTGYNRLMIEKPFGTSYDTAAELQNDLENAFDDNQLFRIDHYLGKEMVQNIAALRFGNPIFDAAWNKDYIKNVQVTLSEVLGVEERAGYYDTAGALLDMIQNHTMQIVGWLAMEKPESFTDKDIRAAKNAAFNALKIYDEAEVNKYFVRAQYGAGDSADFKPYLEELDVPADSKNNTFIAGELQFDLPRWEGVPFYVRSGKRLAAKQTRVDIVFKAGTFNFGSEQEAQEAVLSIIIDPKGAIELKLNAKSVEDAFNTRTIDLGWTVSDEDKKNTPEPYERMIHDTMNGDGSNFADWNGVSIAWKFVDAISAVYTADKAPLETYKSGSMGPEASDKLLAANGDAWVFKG
In words: Leuconostoc G6PDH inhibition potency, SAR follow-up, counter-screen for TbHK1 inhibitor project, biochemical, analogue series, IC50 (AID 2579). A general note: A counterscreen serves to expose hits that act by an unwanted route or on another target.

Where only a bound is given, the exact number is not on record here.

The IC50 is the point on the concentration scale where inhibition reaches its midpoint. The low end stands for greater potency, the high end for weaker potency. With `O=C(Cn1sc2ccccc2c1=O)Nc1ccccc1I` [N-(2-iodanylphenyl)-2-(3-oxidanylidene-1,2-benzothiazol-2-yl)ethanamide], the concentration for half-maximal inhibition (IC50) is more than 25 µM.
As for `O=c1c2cc(Br)ccc2sn1-c1ccccc1` [KSC-6-175], the figure is more than 25 µM; as for `O=c1c2cc(Br)ccc2[s+]([O-])n1-c1ccccc1` (configuration not stated), more than 25 µM; as for `Cn1sc(=O)c2ccccc21` [KUC103851N], more than 25 µM.
Under `CC(C(=O)Nc1ccccc1)n1sc2ccccc2c1=O` (configuration not stated) [2-(3-keto-1,2-benzothiazol-2-yl)-N-phenyl-propionamide (9)] stands more than 25 µM; under `O=c1c2ccccc2sn1-c1ccc(Cl)cc1Cl` [KUC103882N], more than 25 µM; under `CCCCCC(=O)Nc1cc(Cl)ccc1C(=O)O` [4-chloro-2-(1-oxohexylamino)benzoic acid], more than 25 µM.
As for `COc1ccc(C(=O)NC(C(=O)O)c2ccccc2)cc1` (configuration not stated) [2-[(4-methoxyphenyl)carbonylamino]-2-phenyl-ethanoic acid], the figure is more than 25 µM.
Regarding `CC(C)c1ccc(C(=O)Nc2cc(Cl)ccc2C(=O)O)cc1` [4-chloro-2-[[oxo-(4-propan-2-ylphenyl)methyl]amino]benzoic acid], the IC50 was more than 25 µM.
As for `COc1cc(C(=O)Nc2cc(Cl)ccc2C(=O)O)cc(OC)c1OC`, the figure is more than 25 µM; as for `COc1ccc(C(=O)Nc2ccccc2-c2nn[nH]n2)cc1` [4-methoxy-N-[2-(2H-1,2,3,4-tetrazol-5-yl)phenyl]benzamide], more than 25 µM.
Under `O=C(Cn1sc2ccccc2c1=O)Nc1ccc(I)cc1` [N-(4-iodophenyl)-2-(3-oxo-1,2-benzothiazol-2-yl)acetamide] stands more than 25 µM.
In the case of `COc1cccc(-n2sc3ccccc3c2=O)c1` [2-(3-methoxyphenyl)-1,2-benzothiazol-3-one], the IC50 is more than 25 µM.
Under `O=C(Nc1cc(Cl)ccc1C(=O)O)c1ccccc1` [2-benzamido-4-chlorobenzoic acid] stands more than 25 µM; under `COc1ccc(-n2sc3ccccc3c2=O)cc1` [KSC-6-098], more than 25 µM.
Under `CCOC(=O)c1ccncc1NC(=O)c1ccc(OC)cc1` [3-[[(4-methoxyphenyl)-oxomethyl]amino]-4-pyridinecarboxylic acid ethyl ester] stands more than 25 µM; under `CN(C)c1ccc(NC(=O)Cn2sc3ccccc3c2=O)cc1` [KSC-09-127C], more than 25 µM; under `COc1ccc(C(=O)Nc2cc(C(F)(F)F)ccc2C(=O)O)cc1` [2-[(4-methoxybenzoyl)amino]-4-(trifluoromethyl)benzoic acid], more than 25 µM.
Under `O=C(Cn1sc2ccccc2c1=O)Nc1ccc(C(F)(F)F)cc1` [KUC105341N] stands more than 25 µM.
Molecule `O=C(Cn1sc2ccccc2c1=O)Nc1ccccc1Br` came in with an IC50 of more than 25 µM.
In the case of `CCOC(=O)Cn1sc2ccccc2c1=O` [KUC104555N], the IC50 is more than 25 µM.
Under `COc1ccc(C(=O)N(C)c2cc(Cl)ccc2C(=O)O)cc1` stands more than 25 µM.
Under `O=c1c2cc(C(F)(F)F)ccc2sn1-c1ccccc1` [KSC-09-037] stands more than 25 µM; under `COc1ccc(C(=O)Nc2cc(Br)ccc2C(=O)O)cc1` [4-bromo-2-[[(4-methoxyphenyl)-oxomethyl]amino]benzoic acid], more than 25 µM.
As for `O=C(Nc1ccccc1)c1cc(F)ccc1S`, the figure is more than 25 µM; as for `COc1ccc(C(=O)Nc2cc(Cl)ccc2S(N)(=O)=O)cc1`, more than 25 µM.
The molecule `O=c1c2cc(F)ccc2sn1-c1ccccc1` [5-fluoranyl-2-phenyl-1,2-benzothiazol-3-one] gave an IC50 of more than 25 µM.
As for `O=C(c1ccccc1)n1sc2ccccc2c1=O` [KUC105344N], the IC50 was more than 25 µM.
As to `O=C(Nc1cc(Cl)ccc1C(=O)O)c1ccc(C(F)(F)F)cc1` [4-chloranyl-2-[[4-(trifluoromethyl)phenyl]carbonylamino]benzoic acid], the IC50 was more than 25 µM.
As for `O=c1cc(-c2ccccc2)sn1-c1ccccc1`, the figure is more than 25 µM; as for `CN(C)S(=O)(=O)c1cccc(-n2sc3ccccc3c2=O)c1` [3-(3-keto-1,2-benzothiazol-2-yl)-N,N-dimethyl-benzenesulfonamide], more than 25 µM.
Under `COc1ccc2sn(-c3ccccc3)c(=O)c2c1` [KSC-09-048] stands more than 25 µM.
For the molecule `O=C(Nc1cc(Cl)ccc1C(=O)O)c1ccc(-c2ccccc2)cc1` [4-chloranyl-2-[(4-phenylphenyl)carbonylamino]benzoic acid], the half-inhibitory concentration (IC50) is more than 25 µM.
Turning to `COC(=O)c1ccc(Cl)cc1NC(=O)c1ccc(OC)cc1` [KUC105792N], the IC50 is more than 25 µM.
Turning to `O=C(Nc1ccccc1)n1sc2ccccc2c1=O` [KUC105339N], the IC50 is more than 25 µM.
In turn, `Cc1ccccc1NC(=O)Cn1sc2ccccc2c1=O` came in with an IC50 of more than 25 µM.
As for `O=C(NCc1ccccc1)n1sc2ccccc2c1=O` [N-benzyl-3-oxo-1,2-benzothiazole-2-carboxamide], the figure is more than 25 µM; as for `O=c1c2cc(F)c(F)cc2sn1-c1ccccc1` [KUC104549N], more than 25 µM.
Under `O=C(Cn1sc2ccccc2c1=O)NCc1ccccc1` stands more than 25 µM; under `CN(C)c1cccc(NC(=O)Cn2sc3ccccc3c2=O)c1` [KSC-09-148-9], more than 25 µM.
Consider `CC(C)Cc1ccc(C(=O)Nc2cc(Cl)ccc2C(=O)O)cc1` [4-chloranyl-2-[[4-(2-methylpropyl)phenyl]carbonylamino]benzoic acid], for which the IC50 is more than 25 µM.
For the molecule `O=C(Nc1cc(Cl)ccc1C(=O)O)c1ccc2c(c1)CCC2` [KUC106492N], the IC50 was more than 25 µM.
Under `CCCCCCCC(=O)Nc1cc(Cl)ccc1C(=O)O` [KUC106002N] stands more than 25 µM.
As for `Cc1ccc(-n2sc3ccccc3c2=O)cc1` [2-(4-methylphenyl)-1,2-benzisothiazol-3(2H)-one], the figure is more than 25 µM; as for `COc1ccc(C(=O)Nc2cc(-c3ccccc3)ccc2C(=O)O)cc1`, more than 25 µM; as for `CCc1ccc(C(=O)Nc2cc(Br)ccc2C(=O)O)cc1` [4-bromanyl-2-[(4-ethylphenyl)carbonylamino]benzoic acid], more than 25 µM.
Under `O=C(Cn1sc2ccccc2c1=O)N1CCOCC1` [KUC105406N] stands more than 25 µM; under `O=C(Cn1sc2ccccc2c1=O)Nc1ccccc1F` [KSC-09-149A], more than 25 µM.
The molecule `O=C(O)c1ccccc1NC(=O)c1ccccc1C(=O)O` displayed an IC50 of more than 25 µM.
Turning to `N#Cc1ccc2sn(-c3ccccc3)c(=O)c2c1` [KUC104224N], the IC50 was more than 25 µM.
As for `O=C1c2cccc(Br)c2SCN1c1ccccc1` [8-bromanyl-3-phenyl-2H-1,3-benzothiazin-4-one], the figure is more than 25 µM.
Regarding `O=C(O)c1ccc(Cl)cc1NC(=O)N1CCOCC1` [KUC105933N], the IC50 was more than 25 µM.
In the case of `O=c1c2ccc(F)cc2sn1Cc1ccccc1` [6-fluoro-2-(phenylmethyl)-1,2-benzothiazol-3-one], the concentration for half-maximal inhibition (IC50) was more than 25 µM.
For the molecule `COc1ccc(C(=O)Nc2ccc(Cl)cc2C(=O)O)cc1` [KUC105713N], the IC50 is more than 25 µM.
In the case of `COc1ccc(NC(=O)c2ccccc2SCc2ccccc2)cc1` [KUC103881N], the IC50 is more than 25 µM.
With `COc1ccc(C(=O)Nc2cc(I)ccc2C(=O)O)cc1` [4-iodanyl-2-[(4-methoxyphenyl)carbonylamino]benzoic acid], the IC50 was more than 25 µM.
As for `Cn1c2ccccc2c(=O)n1-c1ccccc1` [1-methyl-2-phenyl-3-indazolone], the figure is more than 25 µM; as for `O=C(Nc1cc(Cl)ccc1C(=O)O)c1ccsc1` [KUC105926N], more than 25 µM.
Under `COc1ccc(C(=O)Nc2cc(Cl)ccc2-c2nnn[nH]2)cc1` [KUC105991N] stands more than 25 µM; under `O=c1c2cc([N+](=O)[O-])ccc2sn1-c1ccccc1` [KUC103868N], more than 25 µM.
Under `COc1ccc(NC(=O)Cn2sc3ccccc3c2=O)cc1` [KSC-4-269] stands more than 25 µM; under `CC(=O)Nc1ccc2sn(-c3ccccc3)c(=O)c2c1` [KSC-6-110], more than 25 µM.
In the case of `COc1ccc(NC(=O)c2ccc(Cl)cc2C(=O)O)cc1` [KUC105925N], the 50% inhibitory concentration (IC50) is more than 25 µM.
For `O=c1c2cc(F)ccc2sn1-c1ccc(Cl)cc1` [2-(4-chlorophenyl)-5-fluoranyl-1,2-benzothiazol-3-one], the IC50 is more than 25 µM.
As for `O=C(Cn1sc2ccccc2c1=O)Nc1cccc(Br)c1` [N-(3-bromophenyl)-2-(3-oxo-1,2-benzothiazol-2-yl)acetamide], the figure is more than 25 µM.
Under `O=c1c2c(Br)cccc2sn1-c1ccccc1` [4-bromanyl-2-phenyl-1,2-benzothiazol-3-one] stands more than 25 µM.
Under `CCc1ccc(C(=O)Nc2cc(Cl)ccc2C(=O)OC)cc1` [4-chloro-2-[[(4-ethylphenyl)-oxomethyl]amino]benzoic acid methyl ester] stands more than 25 µM.
The molecule `O=c1c2ccccc2sn1-c1cccc(F)c1` [KUC103653N] gave an IC50 of more than 25 µM.
As for `CN(Cc1ccccc1)C(=O)Cn1sc2ccccc2c1=O` [N-benzyl-N-methyl-2-(3-oxo-1,2-benzothiazol-2-yl)acetamide], the figure is more than 25 µM; as for `COc1ccc(S(=O)(=O)Nc2cc(Cl)ccc2C(=O)O)cc1`, more than 25 µM.
As for `COc1ccc(NC(=O)Nc2ccccc2C(=O)O)cc1` [KUC105625N], the figure is more than 25 µM; as for `COc1cccc(NC(=O)Cn2sc3ccccc3c2=O)c1` [KUC104220N], more than 25 µM.
